For one assay, the system named is T cell hybridoma 5G11. The experiment in a line: T hybridoma 5G11 IL-2 response. It counts as cell-based, mouse. The settings on record: for Hybridoma response (SI) 5G11: IL-2 by ELISA after 48 h, peptide 10 μg/ml, SI > 2 positive. As for the experimental part:
(§1) The T cell hybridomas, provided by G Sonderstrup (Stanford, CA, USA), were generated as described. In brief, human CD4, HLA-DRA*101/HLA-DRB*0401 triple transgenic (HLA-DR4trg) mice (devoid of I-Aβ) were immunized in the footpad with 50 μg of purified HC gp-39 mixed in incomplete Freund's adjuvant (IFA). Draining lymph nodes were isolated and T-cell hybridomas were generated by polyethylene glycol fusion of primed and in vitro antigen-restimulated lymph node cells with the AKR BW5147 fusion partner. Following fusion, growth-positive hybridoma wells were screened for reactivity to HC gp-39 and a set of 55 peptides (16 amino acids in length) covering the entire HC gp-39 sequence. HLA-DR4(B1*0401)-restricted hybridomas responsive to both the HC gp-39 protein and the immunodominant epitope 263–275 of HC gp-39 (for example, 5G11, 8B12, 14G11 and 20H5) were cloned, subcloned, characterised and selected for further study.
(§2) HC gp-39-specific IL-2 production by T hybridomas was measured in wells of round-bottomed microtiter plates. Hybridoma cells (2 to 5 × 10^4) and irradiated APC (0.5 to 1 × 10^5; 12,000 to 16,000 RAD) from the B lymphoblastoid cell line (BLCL) carrying the DRB1*0401 specificity were incubated in 150 μl volumes. Antigen was added in 50 μl volumes to duplicate wells. After 48 h, 100 μl of the culture supernatant was assayed for IL-2 production using a sandwich ELISA with Pharmingen antibodies specific for mouse IL-2. The antigen sensitivity of the hybridomas to both peptide and protein was determined (Figure 2). […] In later assays, an excess of peptide or APL (10 μg/ml), inducing maximal responses in all hybridomas, was tested.
(In general: In an ELISA, binding on a coated surface is turned into a signal by an enzyme label.)

For another assay, the system named is T cell hybridoma 14G11. The experiment in a line: T hybridoma 14G11 IL-2 response. It is filed as cell-based, mouse. The following applies: for Hybridoma response (SI) 14G11: IL-2 by ELISA after 48 h, peptide 10 μg/ml, SI > 2 positive. As for the experimental part: as §1, §2
Where [1] appears, read: Figure 2a dose response, IL-2 ELISA after 48 h.

No end group written: not given here.

Regarding “RSFTLASSETGVG [Compound 1, HC gp-39(263–275)]”, in the assay on T cell hybridoma 5G11 (Figure 1, IL-2 production, DRB1*0401 BLCL as APC, duplicate or triplicate, background 29,203 counts, ±30% of WT response = super/partial agonist), the “T hybridoma (SI) 5G11” value amounted to 29 SI. For the same sequence, the “Peptide concentration for half maximal stimulation (IL-2), 5G11” value in the assay with T cell hybridoma 5G11 (setting [1]) is 2 µg/mL. For the same sequence, the “Hybridoma response (SI) 5G11” value was found to be 13 SI in the assay with T cell hybridoma 5G11 (Table 1, DRB1*0401 BLCL as APC, background 8,147 counts, representative of at least three experiments) and 17 SI in the assay with T cell hybridoma 5G11 (Table 2, DRB1*0401 BLCL as APC, background 17,238 counts, SD not above 15%). The “T hybridoma (SI) 14G11” value in the assay on T cell hybridoma 14G11 (Figure 1, IL-2 production, DRB1*0401 BLCL as APC, duplicate or triplicate, background 7,152 counts, ±30% of WT response = super/partial agonist) is on record as 35 SI. Besides, in the assay with T cell hybridoma 14G11 (setting [1]), the “Peptide concentration for half maximal stimulation (IL-2), 14G11” value came to 0.26 µg/mL. Further, the “Hybridoma response (SI) 14G11” value in the assay with T cell hybridoma 14G11 (Table 1, DRB1*0401 BLCL as APC, background 8,598 counts, representative of at least three experiments) was 15 SI; in the assay on T cell hybridoma 14G11 (Table 2, DRB1*0401 BLCL as APC, background 10,131 counts, SD not above 15%), 30 SI.

Source of the values: PMC2206373, “Identification of an altered peptide ligand based on the endogenously presented, rheumatoid arthritis-associated, human cartilage glycoprotein-39(263–275) epitope: an MHC anchor variant peptide for immune modulation” (Arthritis Research & Therapy, 2007).
